# Legend:
# [1] = DRUGMATRIX: Sodium/nucleoside co-transporter radioligand binding (ligand: nitrobenzylthioinosine); assay type: cell membranes, Cavia porcellus, Dunkin-Hartley, Cerebral cortex, Membrane; conditions: Not Active = under 50% inhibition at 10 µM
# Carbonic anhydrase 2 = Carbonic anhydrase 2 (Homo sapiens, UniProt P00918); test: DRUGMATRIX: Carbonic Anhydrase II enzyme inhibition (substrate: 4-Nitrophenyl acetate (4-NPA)); assay type: tissue-based, Erythrocyte; conditions: Not Active = under 50% inhibition at 10 µM
# Insulin receptor = Insulin receptor (Rattus norvegicus, UniProt P15127); assay type: cell membranes, Wistar, Liver, Membrane; also: in other assays of this panel Not Active means under 50% inhibition at 10 µM
# Insulin receptor, sequence (P15127 27-759 limits assumed): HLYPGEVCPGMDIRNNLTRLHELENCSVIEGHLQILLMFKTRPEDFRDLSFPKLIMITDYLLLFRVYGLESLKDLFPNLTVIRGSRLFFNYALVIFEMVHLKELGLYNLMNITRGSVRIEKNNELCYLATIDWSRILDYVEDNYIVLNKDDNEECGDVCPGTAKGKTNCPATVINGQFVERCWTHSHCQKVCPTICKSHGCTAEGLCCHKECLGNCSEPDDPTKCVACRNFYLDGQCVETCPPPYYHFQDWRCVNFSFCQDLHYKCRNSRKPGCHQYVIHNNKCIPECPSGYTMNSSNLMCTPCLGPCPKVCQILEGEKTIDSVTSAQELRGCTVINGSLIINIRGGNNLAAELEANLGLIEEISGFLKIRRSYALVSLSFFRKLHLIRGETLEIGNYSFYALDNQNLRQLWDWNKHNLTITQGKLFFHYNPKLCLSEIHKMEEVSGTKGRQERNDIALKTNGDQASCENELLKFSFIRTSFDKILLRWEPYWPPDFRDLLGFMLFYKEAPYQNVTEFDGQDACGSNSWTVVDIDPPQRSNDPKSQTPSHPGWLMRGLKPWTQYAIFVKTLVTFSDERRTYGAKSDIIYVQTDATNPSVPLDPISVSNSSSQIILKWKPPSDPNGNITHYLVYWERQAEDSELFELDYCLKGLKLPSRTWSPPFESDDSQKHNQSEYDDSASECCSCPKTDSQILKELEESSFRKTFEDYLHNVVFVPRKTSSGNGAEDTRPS
# Insulin receptor, sequence (P15127 764-1383 limits assumed): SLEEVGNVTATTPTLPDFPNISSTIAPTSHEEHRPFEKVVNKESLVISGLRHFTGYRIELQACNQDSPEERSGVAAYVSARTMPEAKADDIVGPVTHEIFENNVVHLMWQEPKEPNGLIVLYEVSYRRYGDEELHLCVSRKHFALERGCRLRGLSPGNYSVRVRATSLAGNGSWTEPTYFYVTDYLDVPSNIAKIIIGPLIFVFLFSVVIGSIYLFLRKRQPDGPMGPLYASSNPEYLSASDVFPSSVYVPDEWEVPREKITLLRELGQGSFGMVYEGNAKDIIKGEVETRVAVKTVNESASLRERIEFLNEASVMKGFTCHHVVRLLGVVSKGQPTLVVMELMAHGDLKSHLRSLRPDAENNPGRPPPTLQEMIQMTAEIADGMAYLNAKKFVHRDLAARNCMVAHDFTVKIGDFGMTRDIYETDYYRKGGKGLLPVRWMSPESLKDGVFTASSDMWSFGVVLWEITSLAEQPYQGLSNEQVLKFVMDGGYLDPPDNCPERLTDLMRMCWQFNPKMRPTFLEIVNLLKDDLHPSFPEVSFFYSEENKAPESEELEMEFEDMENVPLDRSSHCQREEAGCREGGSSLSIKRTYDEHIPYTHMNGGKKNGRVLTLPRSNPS
# [2] = molecular target: T1, Polyunsaturated fatty acid lipoxygenase ALOX15 (Oryctolagus cuniculus, UniProt P12530); test: biochemical; assay type: tissue-based, Reticulocytes;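 also: inhibition of 15-lipoxygenase enzyme activity measured with linoleic acid as the substrate; in other assays of this panel Not Active means under 50% inhibition at 10 µM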
# T1 sequence (P12530 whole entry): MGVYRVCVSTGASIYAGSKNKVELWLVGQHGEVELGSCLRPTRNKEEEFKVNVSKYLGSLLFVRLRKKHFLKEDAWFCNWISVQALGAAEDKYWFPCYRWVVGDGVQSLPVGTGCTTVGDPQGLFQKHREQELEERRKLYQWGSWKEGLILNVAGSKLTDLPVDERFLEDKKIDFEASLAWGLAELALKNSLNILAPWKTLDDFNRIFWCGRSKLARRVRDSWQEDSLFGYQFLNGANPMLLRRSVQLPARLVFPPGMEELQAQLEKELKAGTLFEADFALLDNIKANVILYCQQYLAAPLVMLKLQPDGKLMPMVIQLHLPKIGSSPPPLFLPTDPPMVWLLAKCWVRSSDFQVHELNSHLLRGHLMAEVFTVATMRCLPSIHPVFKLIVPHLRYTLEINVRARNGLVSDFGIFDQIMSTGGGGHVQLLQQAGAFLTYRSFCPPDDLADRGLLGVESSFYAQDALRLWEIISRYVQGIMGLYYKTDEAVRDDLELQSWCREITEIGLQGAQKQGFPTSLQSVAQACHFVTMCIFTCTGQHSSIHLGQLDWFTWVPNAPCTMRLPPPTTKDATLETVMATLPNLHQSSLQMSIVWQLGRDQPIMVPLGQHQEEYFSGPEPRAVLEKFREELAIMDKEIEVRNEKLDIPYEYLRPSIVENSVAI
# [3] = molecular target: Delta-type opioid receptor (Homo sapiens, UniProt P41143); assay type: cell membranes, HEK293, Membrane; also: in other assays of this panel Not Active means under 50% inhibition at 10 µM
# Delta-type opioid receptor, sequence (P41143 whole entry): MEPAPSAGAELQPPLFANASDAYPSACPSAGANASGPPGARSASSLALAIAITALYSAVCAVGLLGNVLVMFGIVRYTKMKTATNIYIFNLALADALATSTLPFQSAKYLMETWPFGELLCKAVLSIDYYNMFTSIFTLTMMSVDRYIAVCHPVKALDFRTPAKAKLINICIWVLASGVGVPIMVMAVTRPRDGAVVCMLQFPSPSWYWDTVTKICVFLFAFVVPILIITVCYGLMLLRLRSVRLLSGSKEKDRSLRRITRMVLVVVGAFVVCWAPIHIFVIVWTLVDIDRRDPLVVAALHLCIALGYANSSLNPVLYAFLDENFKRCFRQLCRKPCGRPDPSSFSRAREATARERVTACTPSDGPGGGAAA
# Interstitial collagenase = molecular target: T2, Interstitial collagenase (Homo sapiens, UniProt P03956); test: biochemical; assay type: tissue-based, Rheumatoid synovial fibroblasts;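 also: MMP-1 enzyme inhibition assay using a peptide substrate; in other assays of this panel Not Active means under 50% inhibition at 10 µM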
# T2 sequence (P03956 whole entry): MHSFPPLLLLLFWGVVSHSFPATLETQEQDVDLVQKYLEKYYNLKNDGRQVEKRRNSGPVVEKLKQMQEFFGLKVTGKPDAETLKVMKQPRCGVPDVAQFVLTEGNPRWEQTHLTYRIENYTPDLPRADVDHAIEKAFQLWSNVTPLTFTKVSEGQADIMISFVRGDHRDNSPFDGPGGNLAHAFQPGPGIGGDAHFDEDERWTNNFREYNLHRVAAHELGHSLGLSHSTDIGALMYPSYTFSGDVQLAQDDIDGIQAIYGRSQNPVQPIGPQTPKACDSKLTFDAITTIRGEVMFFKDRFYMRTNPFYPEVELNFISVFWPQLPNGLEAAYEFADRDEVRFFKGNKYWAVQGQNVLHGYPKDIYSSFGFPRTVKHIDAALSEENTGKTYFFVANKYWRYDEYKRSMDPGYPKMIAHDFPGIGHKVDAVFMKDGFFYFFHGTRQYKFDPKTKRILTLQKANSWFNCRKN
# [4] = molecular target: Mitogen-activated protein kinase 1 (Homo sapiens, UniProt P28482); test: DRUGMATRIX: Protein Serine/Threonine Kinase, ERK2 enzyme inhibition (substrate: Myelin Basic Protein); set-up: species or system Escherichia coli; conditions: Not Active = under 50% inhibition at 10 µM
# Mitogen-activated protein kinase 1, sequence (P28482 whole entry): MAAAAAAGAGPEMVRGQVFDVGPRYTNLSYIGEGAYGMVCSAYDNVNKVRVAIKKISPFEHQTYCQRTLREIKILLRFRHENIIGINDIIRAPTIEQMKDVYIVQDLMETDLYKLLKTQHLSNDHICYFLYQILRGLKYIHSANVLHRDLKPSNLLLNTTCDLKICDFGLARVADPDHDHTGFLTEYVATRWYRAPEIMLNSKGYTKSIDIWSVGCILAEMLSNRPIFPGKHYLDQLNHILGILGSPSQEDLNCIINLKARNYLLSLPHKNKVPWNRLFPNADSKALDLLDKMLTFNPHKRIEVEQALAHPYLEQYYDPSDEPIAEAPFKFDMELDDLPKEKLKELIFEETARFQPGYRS
compound,measurement,setting,value
C[N+](C)(C)CCOC(N)=O.[Cl-] [CARBACHOL],IC50,[1],Not Active
same,Ki,[1],Not Active
same,IC50,Carbonic anhydrase 2; erythrocyte,Not Active
same,IC50,Insulin receptor,Not Active
same,IC50,[2]; reticulocytes,Not Active
same,IC50,[3]; hek293,Not Active
same,IC50,Interstitial collagenase,Not Active
same,IC50,[4],Not Active
CCCCCCNC(=O)n1cc(F)c(=O)[nH]c1=O [CARMOFUR],IC50,[1],Not Active
same,Ki,[1],Not Active
same,IC50,Carbonic anhydrase 2; erythrocyte,Not Active
same,IC50,Insulin receptor,Not Active
same,IC50,[2]; reticulocytes,Not Active
same,IC50,[3]; hek293,Not Active
same,IC50,Interstitial collagenase,Not Active
same,IC50,[4],Not Active
COc1ccccc1OCCNCC(O)COc1cccc2[nH]c3ccccc3c12 (stereo unspecified) [CARVEDILOL],IC50,[1],Not Active
same,Ki,[1],Not Active
same,IC50,Carbonic anhydrase 2; erythrocyte,Not Active
same,IC50,Insulin receptor,Not Active
same,IC50,[2]; reticulocytes,Not Active
same,IC50,[3]; hek293,Not Active
same,IC50,Interstitial collagenase,Not Active
same,IC50,[4],Not Active
Cl.NC[C@H]1CC[C@H](C(=O)Oc2ccc(CCC(=O)O)cc2)CC1 [CETRAXATE HYDROCHLORIDE],IC50,[1],Not Active
same,Ki,[1],Not Active
same,IC50,Carbonic anhydrase 2; erythrocyte,Not Active
same,IC50,Insulin receptor,Not Active
same,IC50,[2]; reticulocytes,Not Active
same,IC50,[3]; hek293,Not Active
same,IC50,Interstitial collagenase,Not Active
same,IC50,[4],Not Active
CC1(COc2ccc(CC3SC(=O)NC3=O)cc2)CCCCC1 (stereo unspecified) [CIGLITAZONE],IC50,[1],Not Active
same,Ki,[1],Not Active
same,IC50,Carbonic anhydrase 2; read-out: IC50,0.086 µM
same,IC50,Insulin receptor,Not Active
same,IC50,[2]; reticulocytes,Not Active
same,IC50,[3]; read-out: IC50,26.9 µM
same,Ki,[3]; read-out: Ki,9.48 µM
same,IC50,Interstitial collagenase,Not Active
same,IC50,[4],Not Active
CC(C)Cc1ccc([C@H](C)C(=O)O)cc1 [DEXIBUPROFEN],IC50,[1],Not Active
same,Ki,[1],Not Active
same,IC50,Carbonic anhydrase 2; erythrocyte,Not Active
same,IC50,Insulin receptor,Not Active
same,IC50,[2]; reticulocytes,Not Active
same,IC50,[3]; hek293,Not Active
same,IC50,Interstitial collagenase,Not Active
same,IC50,[4],Not Active
O=c1[nH]cnc2c1ncn2[C@H]1CC[C@@H](CO)O1 [DIDANOSINE],IC50,[1],Not Active
same,Ki,[1],Not Active
same,IC50,Carbonic anhydrase 2; erythrocyte,Not Active
same,IC50,Insulin receptor,Not Active
same,IC50,[2]; reticulocytes,Not Active
same,IC50,[3]; hek293,Not Active
same,IC50,Interstitial collagenase,Not Active
same,IC50,[4],Not Active
ClC1=C(Cl)[C@]2(Cl)[C@@H]3[C@@H]4C[C@@H]([C@H]5O[C@@H]45)[C@@H]3[C@@]1(Cl)C2(Cl)Cl [DIELDRIN],IC50,[1],Not Active
same,Ki,[1],Not Active
same,IC50,Carbonic anhydrase 2; erythrocyte,Not Active
same,IC50,Insulin receptor,Not Active
same,IC50,[2]; reticulocytes,Not Active
same,IC50,[3]; hek293,Not Active
same,IC50,Interstitial collagenase,Not Active
same,IC50,[4],Not Active
CCN1CCN(c2cc3c(cc2F)c(=O)c(C(=O)O)cn3C2CC2)CC1 [ENROFLOXACIN],IC50,[1],Not Active
same,Ki,[1],Not Active
same,IC50,Carbonic anhydrase 2; erythrocyte,Not Active
same,IC50,Insulin receptor,Not Active
same,IC50,[2]; reticulocytes,Not Active
same,IC50,[3]; hek293,Not Active
same,IC50,Interstitial collagenase,Not Active
same,IC50,[4],Not Active
CNC[C@H](O)c1ccc(O)c(O)c1 [EPINEPHRINE],IC50,[1],Not Active
same,Ki,[1],Not Active
same,IC50,Carbonic anhydrase 2; erythrocyte,Not Active
same,IC50,Insulin receptor,Not Active
same,IC50,[2]; read-out: IC50,3.28 µM
same,IC50,[3]; hek293,Not Active
same,IC50,Interstitial collagenase,Not Active
same,IC50,[4],Not Active
CC[C@H]1OC(=O)[C@H](C)[C@@H](O[C@H]2C[C@@](C)(OC)[C@@H](O)[C@H](C)O2)[C@H](C)[C@@H](O[C@@H]2O[C@H](C)C[C@H](N(C)C)[C@H]2O)[C@](C)(O)C[C@@H](C)C(=O)[C@H](C)[C@@H](O)[C@]1(C)O [ERYTHROMYCIN],IC50,[1],Not Active
same,Ki,[1],Not Active
same,IC50,Carbonic anhydrase 2; erythrocyte,Not Active
same,IC50,Insulin receptor,Not Active
same,IC50,[2]; reticulocytes,Not Active
same,IC50,[3]; hek293,Not Active
same,IC50,Interstitial collagenase,Not Active
same,IC50,[4],Not Active
CC12CCC(CC1)C(C)(C)O2 [EUCALYPTOL],IC50,[1],Not Active
same,Ki,[1],Not Active
same,IC50,Carbonic anhydrase 2; erythrocyte,Not Active
same,IC50,Insulin receptor,Not Active
same,IC50,[2]; reticulocytes,Not Active
same,IC50,[3]; hek293,Not Active
same,IC50,Interstitial collagenase,Not Active
same,IC50,[4],Not Active
NC(N)=Nc1nc(CSCCC(N)=NS(N)(=O)=O)cs1 [FAMOTIDINE],IC50,[1],Not Active
same,Ki,[1],Not Active
same,IC50,Carbonic anhydrase 2; erythrocyte,Not Active
same,IC50,Insulin receptor,Not Active
same,IC50,[2]; reticulocytes,Not Active
same,IC50,[3]; hek293,Not Active
same,IC50,Interstitial collagenase,Not Active
same,IC50,[4],Not Active
COC(=O)Nc1nc2ccc(Sc3ccccc3)cc2[nH]1 [FENBENDAZOLE],IC50,[1],Not Active
same,Ki,[1],Not Active
same,IC50,Carbonic anhydrase 2; erythrocyte,Not Active
same,IC50,Insulin receptor,Not Active
same,IC50,[2]; reticulocytes,Not Active
same,IC50,[3]; hek293,Not Active
same,IC50,Interstitial collagenase,Not Active
same,IC50,[4],Not Active
COc1cc(/C=C/C(=O)O)ccc1O [FERULATE],IC50,[1],Not Active
same,Ki,[1],Not Active
same,IC50,Carbonic anhydrase 2; erythrocyte,Not Active
same,IC50,Insulin receptor,Not Active
same,IC50,[2]; read-out: IC50,3.98 µM
same,IC50,[3]; hek293,Not Active
same,IC50,Interstitial collagenase,Not Active
same,IC50,[4],Not Active
Nc1nc(F)nc2c1ncn2[C@@H]1O[C@H](CO)[C@@H](O)[C@@H]1O [FLUDARABINE],IC50,[1],Not Active
same,Ki,[1],Not Active
same,IC50,Carbonic anhydrase 2; erythrocyte,Not Active
same,IC50,Insulin receptor,Not Active
same,IC50,[2]; reticulocytes,Not Active
same,IC50,[3]; hek293,Not Active
same,IC50,Interstitial collagenase,Not Active
same,IC50,[4],Not Active
C[C@H](C(=O)O)c1ccc2oc(-c3ccc(F)cc3)nc2c1 [FLUNOXAPROFEN],IC50,[1],Not Active
same,Ki,[1],Not Active
same,IC50,Carbonic anhydrase 2; erythrocyte,Not Active
same,IC50,Insulin receptor,Not Active
same,IC50,[2]; reticulocytes,Not Active
same,IC50,[3]; hek293,Not Active
same,IC50,Interstitial collagenase,Not Active
same,IC50,[4],Not Active
COc1ccc(Cl)cc1C(=O)NCCc1ccc(S(=O)(=O)NC(=O)NC2CCCCC2)cc1 [GLYBURIDE],IC50,[1],Not Active
same,Ki,[1],Not Active
same,IC50,Carbonic anhydrase 2; erythrocyte,Not Active
same,IC50,Insulin receptor,Not Active
same,IC50,[2]; reticulocytes,Not Active
same,IC50,[3]; hek293,Not Active
same,IC50,Interstitial collagenase,Not Active
same,IC50,[4],Not Active
O=C(O)CO [GLYCOLIC ACID],IC50,[1],Not Active
same,Ki,[1],Not Active
same,IC50,Carbonic anhydrase 2; erythrocyte,Not Active
same,IC50,Insulin receptor,Not Active
same,IC50,[2]; reticulocytes,Not Active
same,IC50,[3]; hek293,Not Active
same,IC50,Interstitial collagenase,Not Active
same,IC50,[4],Not Active
O=C(O)CNCP(=O)(O)O [GLYPHOSATE],IC50,[1],Not Active
same,Ki,[1],Not Active
same,IC50,Carbonic anhydrase 2; erythrocyte,Not Active
same,IC50,Insulin receptor,Not Active
same,IC50,[2]; reticulocytes,Not Active
same,IC50,[3]; hek293,Not Active
same,IC50,Interstitial collagenase,Not Active
same,IC50,[4],Not Active

# — ChEMBL document CHEMBL1909046, “DrugMatrix in vitro pharmacology data”
